Test results: PubChem BioAssay AID1996
Converted amounts (≈) assume the structure as drawn.

Conditions: buffer; pH 7.4; 200.0 µM

Structure (SMILES)	solubility kinetic
O=C(Nc1cc2c3c(c1)CC(=O)N3CCC2)C1CCCCC1	> 44.8 µg/mL
CN(C)c1ccc(-c2nc3cc(N)ccc3o2)cc1	14 µg/mL (≈ 55.3 µM)
COc1ccc(OCC#CCN2CCNCC2)cc1.O=C(O)C(=O)O	52.4 µg/mL
CC(=O)Nc1ccc(S(=O)(=O)Nc2ccc3nc(C)sc3c2)cc1	14.6 µg/mL (≈ 40.4 µM)
CC(C)CN1CCN(Cc2cccn2-c2cccnc2)CC1CCO (stereo not given)	28.8 µg/mL (≈ 84.1 µM)
CC(=O)Cn1ncc(N2CCOCC2)c(Cl)c1=O	> 40.8 µg/mL
COc1cc(OC)cc(C(=O)NCC(=O)OC(C)C(=O)NC(C)C2CC3CCC2C3)c1 (stereo not given)	> 64.9 µg/mL
O=S1(=O)CC2SC(=S)N(c3ccccc3)C2C1 (stereo not given)	1.3 µg/mL (≈ 4.55 µM)
CSc1ncccc1C(=O)OCC(=O)NC(C)C	> 40.2 µg/mL
Nn1c(Nc2ccc(Cl)cc2)nncc1=O	> 35.6 µg/mL
CC1(C)NC(=O)N(CC(=O)OCC(=O)c2ccc(Cl)s2)C1=O	> 51.7 µg/mL
O=C(COC(=O)/C=C/c1ccc(S(=O)(=O)N2CCOCC2)cc1)Nc1ccc(F)c(F)c1F	11.6 µg/mL (≈ 23.9 µM)
CCN1CCc2c(OCC(=O)N3CCCCC3)cccc2C1=O	> 47.5 µg/mL
COC(=O)c1ccc(C)c(NC(=O)Cn2c(C)csc2=O)c1	> 48.1 µg/mL
Cl.O=C(CCN1CCN(CCO)CC1)N1c2ccccc2Sc2ccc(C(F)(F)F)cc21	65.7 µg/mL
CC(C)NC(=O)N(Cc1ccc(Cl)cc1)Cc1cccs1	37 µg/mL (≈ 115 µM)
CC(=O)Nc1ccc(N/C=C2/CCCC2=O)cc1	> 36.6 µg/mL

Structure (SMILES)	solubility kinetic
Cc1nnc(SCC(=O)NC23CC4CC(CC(C4)C2)C3)s1	> 48.5 µg/mL
COc1ccc(-c2nc(C#N)c(N3CCCCC3)o2)cc1	0.3 µg/mL (≈ 1.06 µM)
CCOCCCNCc1cc(Cl)cc(Cl)c1OCC.Cl	44 µg/mL
Cc1cccc(N(CC(=O)N2CCCC2)S(C)(=O)=O)c1	43.5 µg/mL (≈ 147 µM)
CCCN1CCc2c(sc3nc(SC)n(-c4ccccc4)c(=O)c23)C1	33.9 µg/mL (≈ 91.2 µM)
Cc1ccc(C)c(OCCCNCc2ccccc2)c1.O=C(O)C(=O)O	> 53.9 µg/mL
Cc1cccc(CS(=O)(=O)c2ncc(CO)n2C)c1	> 42.1 µg/mL
CC1CC(C)CN(C(=O)CCCNC(=O)c2ccc(Cl)cc2)C1 (stereo not given)	> 50.5 µg/mL
CC(=O)c1c(C)[nH]c(C(=O)COC(=O)c2ccc(Cl)nc2)c1C	3.9 µg/mL (≈ 11.7 µM)
C=CCNC(=O)C1CCC(=O)N1S(=O)(=O)c1ccc(C)cc1 (stereo not given)	> 48.4 µg/mL
COc1ccc(CN2CSC(=S)N(Cc3ccc(OC)cc3)C2)cc1	0.8 µg/mL (≈ 2.14 µM)
CCOC(=O)N1CCN(C(=S)Nc2ccccc2C(C)C)CC1	> 50.3 µg/mL
Cc1cc(C)nc(NC(=O)c2ccc(Cl)cc2Cl)n1	42 µg/mL (≈ 142 µM)
CCOc1ccccc1NC(=O)COC(=O)C1CCC1	39.2 µg/mL (≈ 141 µM)
CC(NC(=O)CN1CCOCC1)c1ccc(F)cc1 (stereo not given)	> 39.9 µg/mL
CN1C(=O)NC(c2ccccc2[N+](=O)[O-])C2=C1CC(C)(C)CC2=O (stereo not given)	39.4 µg/mL (≈ 120 µM)
COC(=O)CCCC(=O)N1CCC(CCC(=O)NC2CC2)CC1	> 48.7 µg/mL

Next, values leading:

solubility kinetic	Structure (SMILES)
> 50.3 µg/mL	COC(=O)CNC(=O)c1cc(-c2ccncc2)nc2ccc(C)cc12
14.9 µg/mL (≈ 45.5 µM)	CC(NC(=O)COC(=O)c1ccc2c(c1)OCO2)c1ccccc1 (stereo not given)
< 0.3 µg/mL	Cc1ccc(OCCn2c(=S)[nH]c3ccccc32)c(C(C)C)c1
> 48.5 µg/mL	Cc1ccc(CN2CC(C(=O)Nc3cccc(C)n3)CC2=O)cc1 (stereo not given)
> 48.5 µg/mL	O=C(CSc1ncnc2ccccc12)NCCc1ccccc1
11.1 µg/mL (≈ 23.2 µM)	CCOc1ccccc1OCCCC(=O)Nc1cc(S(=O)(=O)N2CCOCC2)ccc1OC
1.2 µg/mL (≈ 4.99 µM)	O=C(NC(=O)c1ccccc1)Nc1ccccc1
1 µg/mL (≈ 3.24 µM)	Cc1nc(-c2ccc(NC(=O)Cc3ccccc3)cc2)cs1
> 46.3 µg/mL	CCCCN(C)Cc1c(C)[nH]c2c(ccc3ccccc32)c1=O
> 54.7 µg/mL	Cc1ccc(C)c(NC(=O)CN(C)C(=O)c2cc3ccccc3oc2=O)c1
> 36 µg/mL	Cc1[nH]c(=O)c(Cc2ccccc2)c(O)c1C#N
38.4 µg/mL (≈ 144 µM)	CCC(=O)Nc1ccc2oc(-c3cccnc3)nc2c1
> 50 µg/mL	Cc1cc(NC(=O)CSCC(=O)NC(C)c2ccccc2)no1 (stereo not given)
47.1 µg/mL	COc1ccc(C)cc1Nc1nc(N)c2ccccc2n1.Cl
7.4 µg/mL (≈ 23.1 µM)	CCn1cc(CCC(=O)NC(C)c2ccccc2)c2ccccc21 (stereo not given)
> 48.4 µg/mL	CC(C)(C)N=C(NS(=O)(=O)c1cccs1)c1ccccc1
33.9 µg/mL (≈ 135 µM)	Cc1ccoc1C(=O)Nc1cccc2ccccc12
49.4 µg/mL (≈ 129 µM)	OCCOCCN1CCN(C2=Nc3ccccc3Sc3ccccc32)CC1
< 0.3 µg/mL	COc1ccc(NC(=O)c2cc(-c3cccc(OC)c3)on2)cc1
> 42.9 µg/mL	Cc1cc(C(=O)OCC(=O)NC(C)C)c2ccccc2n1
3.6 µg/mL (≈ 11.3 µM)	CCc1nc2ccc(C(=O)NCc3ccccc3)cc2nc1CC
20.8 µg/mL (≈ 64.5 µM)	COC(=O)c1sccc1NC(=O)CSc1ccccc1N
3.4 µg/mL (≈ 10 µM)	CCOc1cccc(OCCCCn2cnc3ccccc3c2=O)c1
> 30.3 µg/mL	COc1ccc(C(=O)c2cnc[nH]2)cc1
10.9 µg/mL	COc1cccc2[nH]c(C(=O)NCc3ccccc3)cc12.Cl
> 47.6 µg/mL	COc1cc(C(=O)Nc2ccc(C)cn2)c([N+](=O)[O-])cc1OC
